{"source": "patent US20220016277A1", "about": "“MACROCYCLIC COMPLEXES OF RADIONUCLIDES AND THEIR USE IN RADIOTHERAPY OF CANCER” (Cornell University, priority 2018, published 2022)", "assay": "Organ distribution of ^225Ac complexes following intravenous injection in mice", "format": "in vivo, C57BL/6 mice", "experimental": "In Vivo Biodistribution of ^225Ac Complexes of Macropa and DOTA. All experiments were approved by the Institutional Animal Care Committee (IACC) of the University of British Columbia and were performed in accordance with the Canadian Council on Animal Care Guidelines. A total of 9 female C57BL/6 mice (6-8 weeks old, 20-25 g) were used for the biodistribution study of each radiometal complex, n=3 for each time point.\nMacropa (100 μL of a 1 mg/mL solution in NH4OAc) was diluted with 387 μL of NH4OAc (1 M, pH 7), and an aliquot (203 μL) of ^225Ac(NO3)3 (˜157 kBq) was then added; the pH of this solution was adjusted to 6.5-7 by the addition of 1 M NaOH (210 μL, trace metal grade). After 5 min at ambient temperature, the reaction solution was analyzed by TLC (0.4 M pH 4 sodium citrate as the eluent), which confirmed >95% radiochemical yield. The reaction was allowed to proceed overnight, and the radiochemical yield was again confirmed to be >95% the following morning. At this time, mice were anesthetized by 2% isoflurane, and approximately 100 μL (10-15 kBq) of the [^225Ac(macropa)]^+ complex were injected into the tail vein of each mouse. After injection, mice were allowed to recover and roam freely in their cages, and were euthanized by CO2 inhalation at 15 min, 1 h, or 5 h (n=3 at each time point) post-injection. Blood was collected by cardiac puncture and placed into an appropriate test tube for scintillation counting. Tissues collected included heart, liver, kidneys, lungs, small intestine, large intestine, brain, bladder, spleen, stomach, pancreas, bone, thyroid, tail, urine, and feces. Tissues were weighed and then counted with a calibrated gamma counter (Packard, Cobra II model 5002) using three energy windows: 60-120 keV (window A), 180-260 keV (window B), and 400-480 keV (window C). Counting was performed both immediately after sacrifice and after 7 days; counts were decay corrected from the time of injection and then converted to the percentage of injected dose (% ID) per gram of tissue (% ID/g). […]\nThe biodistribution studies of [^225Ac(DOTA)]^− and ^225Ac(NO3)3 were carried out as described above for [^225Ac(macropa)]^+, with the following modifications. [^225Ac(DOTA)^− was prepared by adding ^225Ac(NO3)3 (338 μL, 1.1 MBq) to a solution of DOTA (100 μg, 20 mg/mL in H2O) in NH4OAc (467 μL, 0.15 M, pH 7). The pH of the solution was adjusted to 7 using NH4OAc (150 μL, 1 M, pH 7) and the solution was heated at 85° C. for 45 min. RCY >99% was confirmed by TLC as described above. [^225Ac(DOTA)]^− was diluted with saline to a final concentration of 0.05 MBq/100 μL, and 100 μL were injected into each mouse. ^225Ac(NO3)3 (˜58 μL, 0.4 MBq) was diluted and injected in the same manner as [^225Ac(DOTA)]^−. One mouse that was to be euthanized at the 5 h time point in the [^225Ac(DOTA)]^− study died shortly after injection. In the same manner, one mouse that was to be euthanized at the 1 h time point in the ^225Ac(NO3)3 study died.\nThe in vivo stability [^225Ac(macropa)]^+ was examined by comparing its biodistribution to those of ^225Ac(NO3)3 and [^225Ac(DOTA)]^−. C57BL/6 mice were injected via tail vein with 10-50 kBq of each radiometal complex and were sacrificed after 15 min, 1 h, or 5 h. The amount of ^225Ac retained in each organ was quantified by gamma counting and reported as the percent of injected dose per gram of tissue (% ID/g). The results of these studies are compiled in Tables 1-3. Inadequate stability of an ^225Ac complex leading to the loss of radioisotope in vivo is manifested by the accumulation of ^225Ac in the liver, spleen, and bone of mice.^[11,12,32] […] The biodistribution profile of [^225Ac(macropa)]^+ (FIG. 3B) differs markedly from that of ^225Ac(NO3)3. […] Its biodistribution profile was similar to that of [^225Ac(DOTA)]^− (FIG. 3C), which has been previously shown to retain ^225Ac^3+ in vivo.^[7]", "key": {"[1]": {"conditions": "1 h post i.v. injection, energy window B (180-260 keV)"}, "[2]": {"conditions": "1 h post i.v. injection, energy window C (400-480 keV)"}, "[3]": {"conditions": "5 h post i.v. injection, energy window A (60-120 keV)"}, "[4]": {"conditions": "5 h post i.v. injection, energy window B (180-260 keV)"}}, "data": [{"smiles": "O=C([O-])CN1CCN(CC(=O)[O-])CCN(CC(=O)[O-])CCN(CC(=O)[O-])CC1.[225Ac+3]", "note": "[[^225Ac(DOTA)]^−]", "values": [{"measurement": "Organ distribution: bladder", "setting": "[1]", "value": 4.7141, "unit": "% ID/g"}, {"measurement": "Organ distribution: blood", "setting": "[1]", "value": 0.1127, "unit": "% ID/g"}, {"measurement": "Organ distribution: bone (femur + joint)", "setting": "[1]", "value": 0.4126, "unit": "% ID/g"}, {"measurement": "Organ distribution: brain", "setting": "[1]", "value": 0.0248, "unit": "% ID/g"}, {"measurement": "Organ distribution: feces", "setting": "[1]", "value": 0.2349, "unit": "% ID/g"}, {"measurement": "Organ distribution: heart", "setting": "[1]", "value": 0.1378, "unit": "% ID/g"}, {"measurement": "Organ distribution: kidneys", "setting": "[1]", "value": 1.2560, "unit": "% ID/g"}, {"measurement": "Organ distribution: large intestines", "setting": "[1]", "value": 0.0813, "unit": "% ID/g"}, {"measurement": "Organ distribution: liver", "setting": "[1]", "value": 0.2672, "unit": "% ID/g"}, {"measurement": "Organ distribution: lungs", "setting": "[1]", "value": 0.1946, "unit": "% ID/g"}, {"measurement": "Organ distribution: pancreas", "setting": "[1]", "value": 0.0746, "unit": "% ID/g"}, {"measurement": "Organ distribution: small intestines", "setting": "[1]", "value": 1.8809, "unit": "% ID/g"}, {"measurement": "Organ distribution: spleen", "setting": "[1]", "value": 0.0825, "unit": "% ID/g"}, {"measurement": "Organ distribution: stomach", "setting": "[1]", "value": 0.1379, "unit": "% ID/g"}, {"measurement": "Organ distribution: tail", "setting": "[1]", "value": 0.8973, "unit": "% ID/g"}, {"measurement": "Organ distribution: thyroids", "setting": "[1]", "value": 2.6514, "unit": "% ID/g"}, {"measurement": "Organ distribution: urine", "setting": "[1]", "value": 159.1628, "unit": "% ID/g"}, {"measurement": "Organ distribution: bladder", "setting": "[2]", "value": 6.9149, "unit": "% ID/g"}, {"measurement": "Organ distribution: blood", "setting": "[2]", "value": 0.1102, "unit": "% ID/g"}, {"measurement": "Organ distribution: bone (femur + joint)", "setting": "[2]", "value": 0.5654, "unit": "% ID/g"}, {"measurement": "Organ distribution: brain", "setting": "[2]", "value": 0.0380, "unit": "% ID/g"}, {"measurement": "Organ distribution: feces", "setting": "[2]", "value": 0.4091, "unit": "% ID/g"}, {"measurement": "Organ distribution: heart", "setting": "[2]", "value": 0.2857, "unit": "% ID/g"}, {"measurement": "Organ distribution: kidneys", "setting": "[2]", "value": 1.4787, "unit": "% ID/g"}, {"measurement": "Organ distribution: large intestines", "setting": "[2]", "value": 0.1381, "unit": "% ID/g"}, {"measurement": "Organ distribution: liver", "setting": "[2]", "value": 0.2841, "unit": "% ID/g"}, {"measurement": "Organ distribution: lungs", "setting": "[2]", "value": 0.2551, "unit": "% ID/g"}, {"measurement": "Organ distribution: pancreas", "setting": "[2]", "value": 0.1730, "unit": "% ID/g"}, {"measurement": "Organ distribution: small intestines", "setting": "[2]", "value": 2.0201, "unit": "% ID/g"}, {"measurement": "Organ distribution: spleen", "setting": "[2]", "value": 0.2228, "unit": "% ID/g"}, {"measurement": "Organ distribution: stomach", "setting": "[2]", "value": 0.1720, "unit": "% ID/g"}, {"measurement": "Organ distribution: tail", "setting": "[2]", "value": 1.0280, "unit": "% ID/g"}, {"measurement": "Organ distribution: thyroids", "setting": "[2]", "value": 3.5247, "unit": "% ID/g"}, {"measurement": "Organ distribution: urine", "setting": "[2]", "value": 177.6788, "unit": "% ID/g"}, {"measurement": "Organ distribution: bladder", "setting": "[3]", "value": 0.3551, "unit": "% ID/g"}, {"measurement": "Organ distribution: blood", "setting": "[3]", "value": 0.0140, "unit": "% ID/g"}, {"measurement": "Organ distribution: bone (femur + joint)", "setting": "[3]", "value": 0.2063, "unit": "% ID/g"}, {"measurement": "Organ distribution: brain", "setting": "[3]", "value": 0.0213, "unit": "% ID/g"}, {"measurement": "Organ distribution: feces", "setting": "[3]", "value": 5.5318, "unit": "% ID/g"}, {"measurement": "Organ distribution: heart", "setting": "[3]", "value": 0.0664, "unit": "% ID/g"}, {"measurement": "Organ distribution: kidneys", "setting": "[3]", "value": 0.6172, "unit": "% ID/g"}, {"measurement": "Organ distribution: large intestines", "setting": "[3]", "value": 0.2026, "unit": "% ID/g"}, {"measurement": "Organ distribution: liver", "setting": "[3]", "value": 0.1010, "unit": "% ID/g"}, {"measurement": "Organ distribution: lungs", "setting": "[3]", "value": 0.0390, "unit": "% ID/g"}, {"measurement": "Organ distribution: pancreas", "setting": "[3]", "value": 0.0677, "unit": "% ID/g"}, {"measurement": "Organ distribution: small intestines", "setting": "[3]", "value": 0.0967, "unit": "% ID/g"}, {"measurement": "Organ distribution: spleen", "setting": "[3]", "value": 0.1380, "unit": "% ID/g"}, {"measurement": "Organ distribution: stomach", "setting": "[3]", "value": 0.0852, "unit": "% ID/g"}, {"measurement": "Organ distribution: tail", "setting": "[3]", "value": 0.3057, "unit": "% ID/g"}, {"measurement": "Organ distribution: thyroids", "setting": "[3]", "value": 3.6425, "unit": "% ID/g"}, {"measurement": "Organ distribution: urine", "setting": "[3]", "value": 1.1612, "unit": "% ID/g"}, {"measurement": "Organ distribution: bladder", "setting": "[4]", "value": 0.7521, "unit": "% ID/g"}, {"measurement": "Organ distribution: blood", "setting": "[4]", "value": 0.0292, "unit": "% ID/g"}, {"measurement": "Organ distribution: bone (femur + joint)", "setting": "[4]", "value": 0.1478, "unit": "% ID/g"}, {"measurement": "Organ distribution: brain", "setting": "[4]", "value": 0.0513, "unit": "% ID/g"}, {"measurement": "Organ distribution: feces", "setting": "[4]", "value": 3.3534, "unit": "% ID/g"}, {"measurement": "Organ distribution: heart", "setting": "[4]", "value": 0.0879, "unit": "% ID/g"}, {"measurement": "Organ distribution: kidneys", "setting": "[4]", "value": 0.6718, "unit": "% ID/g"}, {"measurement": "Organ distribution: large intestines", "setting": "[4]", "value": 0.2527, "unit": "% ID/g"}, {"measurement": "Organ distribution: liver", "setting": "[4]", "value": 0.2712, "unit": "% ID/g"}, {"measurement": "Organ distribution: lungs", "setting": "[4]", "value": 0.1289, "unit": "% ID/g"}, {"measurement": "Organ distribution: pancreas", "setting": "[4]", "value": 0.1266, "unit": "% ID/g"}, {"measurement": "Organ distribution: small intestines", "setting": "[4]", "value": 0.2065, "unit": "% ID/g"}, {"measurement": "Organ distribution: spleen", "setting": "[4]", "value": 0.0834, "unit": "% ID/g"}, {"measurement": "Organ distribution: stomach", "setting": "[4]", "value": 0.1789, "unit": "% ID/g"}, {"measurement": "Organ distribution: tail", "setting": "[4]", "value": 0.1634, "unit": "% ID/g"}, {"measurement": "Organ distribution: thyroids", "setting": "[4]", "value": 16.2357, "unit": "% ID/g"}, {"measurement": "Organ distribution: urine", "setting": "[4]", "value": 3.6967, "unit": "% ID/g"}]}]}
